Patent US6566371B2, “Intraperitoneal administration of adenosine for the treatment of prevention of gastrointestinal of systemic diseases” (University of Pittsburgh, priority 2000, dated 2003)
Like-named read-outs stand apart in the source and are kept apart here.

Columns and labels:
[1] = Microdialysis of mesenteric vein and aortic arch during continuous peritoneal lavage with adenosine or AMP (Example 2)
Procedure: (§1) In all the examples adult male Sprague-Dawley rats were purchased from Charles River Laboratories (Wilmington, Mass.) and maintained in the University of Pittsburgh Animal Facility (Pittsburgh, Pa.). Rats were provided free access to Prolab Isopro RMH 3000 rodent diet (PMI Nutrition Intl., Richmond, Ind.) and tap water. Light cycle, relative humidity and room temperature were 7:00 AM to 7:00 PM, 55% and 22° C., respectively. Animals weighed 357±11 (mean±SEM) grams at the time of study.
(§2) Rats (n=5) were anesthetized and body temperature monitored and maintained as described for Example 1. The trachea was cannulated with PE-240 and a PE-50 catheter was inserted into the right jugular vein and an intravenous infusion of 0.9% saline was initiated at 50 μl/min. A femoral artery catheter (PE-50) was inserted and was connected to a digital blood pressure analyzer for continuous measurement of MABP and heart rate. Next, microdialysis probes (CMA/20 microdialysis probe 4 mm, Bioanalytical Systems, Inc., West Lafayette, Ind.) were inserted into the aortic arch (via the left carotid artery) and mesenteric vein. Microdialysis probes were perfused with 0.9% saline at 2 μl/min, and the dialysate exiting the probes was collected in a freezing apparatus. As in Example 1, a basin was constructed from the abdominal wall to create a bowl containing the viscera. However, unlike Example 1, instead of intermittent lavage with fresh solutions, the abdominal basin was continuously perfused with Tyrode's solution (5 ml/min) (Mi, Z., et al., J. Pharmacol. Exp. Ther. 287:926 (1998), the disclosure of which is incorporated herein by reference) that was maintained at 37° C. by a heated water bath. Thus, the viscera were submerged completely in Tyrode's solution that was constantly being replaced. After a 20-minute stabilization period, dialysate from the microdialysis probes was collected for 20 minutes. Next, the Tyrode's solution perfusing the peritoneal cavity was switched to prewarmed Tyrode's containing 10^−5 M adenosine (Sigma). After 10 minutes, the dialysate was collected for another 20 minutes. This procedure was repeated two more times as the concentration of adenosine was increased to 10^−4 M and finally to 10^−3 M. To determine whether AMP would behave as a “prodrug” for the delivery of adenosine, after a 20 minute washout period, the entire protocol was repeated with AMP (10^−5 M, 10^−4 M and 10^−3 M) (Sigma).
(§3) Statistical Analysis: Data were analyzed in this example by repeated measures 1-factor analysis of variance. […] Statistical analyses were conducted with NCSS software (Version 6.0; Kaysville, Utah), and the criterion of significance was p<0.05.
(§4) Sample Analysis: Levels of adenosine and its metabolites, inosine, hypoxanthine and xanthine, in the dialysate samples in this example were measured using an Isco (Lincoln, Nebr.) high-pressure liquid chromatographic system (pump model 2350, gradient programmer model 2360, 4.6×250-mm C18 column) with UV detection as described by Mi, Z., et al., J. Pharmacol. Exp. Ther. 273:728 (1995). The chromatography data system was JCL 6000 for Windows (Jones Chromatography LTD., Lakewood, Colo.).

[2] = system: anesthetized rats with mesenteric vasoconstriction induced by angiotensin II plus methoxamine; assay: Intraperitoneal lavage with adenosine during intramesenteric artery infusion of angiotensin II plus methoxamine (Example 1); assay type: in vivo, Sprague-Dawley rats
[3] = rat, in vivo
Procedure: as §1, §2, §3, §4

[4] = system: rats subjected to hemorrhagic shock; assay: Hemorrhagic shock and resuscitation with continuous peritoneal lavage (Example 3); assay type: in vivo, Sprague-Dawley rats
Procedure: The methods of the present invention are illustrated in more detail below. […] In a second study, microdialysis probes were placed in the mesenteric vein and aortic arch of rats, and the peritoneal cavity was continuously ravaged with adenosine or AMP solutions. In a third study, rats were subjected to hemorrhagic shock (2.75 ml of blood removed per 100 grams of body weight over a 15 minute period) for two hours, followed by volume resuscitation for one hour and observation for 72 hours. Rats received peritoneal lavage with adenosine or vehicle (0.9% saline) beginning 20 minutes after blood withdrawal and continuing through the one hour resuscitation period.
Hemorrhagic shock was induced by removing 2.75 ml of blood per 100 grams of body weight over a 15 minute period. Two hours after blood withdrawal, the animals were resuscitated by reinfusing the withdrawn blood and restoring and maintaining a normal blood pressure for one hour by infusing Ringer's solution (Baxter, Deerfield, Ill.) as needed. Beginning 20 minutes after blood withdrawal and continuing for one hour after reinfusion of the withdrawn blood, rats received either continuous peritoneal lavage with adenosine (10^−4 M) or 0.90% saline.

[5] = continuous peritoneal lavage with 10^-3 M
[6] = Group 2, period 7, 10^-3 M adenosine in peritoneal lavage fluid
[7] = continuous peritoneal lavage with adenosine 10^-4 M

## Nc1ncnc2c1ncn2[C@@H]1O[C@H](COP(=O)(O)O)[C@@H](O)[C@H]1O [AMP, adenosine-5′-monophosphate]
[1]; [5]
  purine levels in the aorta: not in the aorta
  purine levels in the mesenteric vein: increased purine levels in the mesenteric vein
[1]; during 10^-3 M in continuous peritoneal lavage, basal 113±5 (adenosine), 112±4 (AMP), not significantly affected
  MABP: 117±7 mm Hg
[1]; during 10^-3 M in continuous peritoneal lavage, basal 351±15 (adenosine), 357±17 (AMP), not significantly affected
  heart rate: 366±22 beats/min

## Nc1ncnc2c1ncn2[C@@H]1O[C@H](CO)[C@@H](O)[C@H]1O [adenosine]
[2]; Group 2, increasing adenosine 10^-7 to 10^-3 M in lavage
  heart rate: not significantly different among the seven experimental periods
[2]; [6]
  MBF compared with period 1 (no infusion, no adenosine): not significantly different than the MBF during period 1
  MBF compared with period 2 (vasoconstrictors, no adenosine): significantly greater than the MBF during period 2
[2]; Group 2, periods 3-6, adenosine 10^-7 M to 10^-4 M in peritoneal lavage fluid, intermittent lavage
  mesenteric blood flow (MBF): remained significantly depressed
[2]; Group 3, 10^-3 M adenosine in peritoneal lavage fluid
  heart rate (bradycardia): did not cause bradycardia
[2]; Group 3, 10^-3 M adenosine, period 4 and period 5
  MABP: very slight and transient increase
[2]; Group 3, by period 7, fixed 10^-3 M adenosine in peritoneal lavage fluid
  MBF compared with period 1: no longer significantly different compared with experimental period 1
[2]; Group 3, periods 3-7, fixed 10^-3 M adenosine in peritoneal lavage fluid
  MBF compared with period 2: significantly greater than MBF during period 2
[2]; peritoneal lavage with adenosine, p<0.05
  mesenteric blood flow (summary): normalized mesenteric blood flow
[3]; male, Sprague-Dawley
  adenosine level in dialysate exiting mesenteric vein microdialysis catheter: 2.17 ± 0.60 µM
  hypoxanthine level in dialysate exiting mesenteric vein microdialysis catheter: 0.18 ± 0.04 µM
  inosine level in dialysate exiting mesenteric vein microdialysis catheter: 1.03 ± 0.32 µM
  xanthine level in dialysate exiting mesenteric vein microdialysis catheter: 0.26 ± 0.06 µM
[3]
  MABP: 108±4 mm Hg
  heart rate: 362±14 beats/min
  levels of adenosine, inosine, hypoxanthine or xanthine in the aorta (dialysate): did not significantly alter
  levels of adenosine, inosine, hypoxanthine or xanthine in the mesenteric vein (dialysate): did not significantly alter
[4]; [7]
  arterial pH vs vehicle-treated group: significantly (p<0.05) higher
  blood urea nitrogen vs vehicle-treated group: significantly (p<0.05) lower
  plasma level of lactate vs vehicle-treated group: significantly (p<0.05) lower
  plasma level of potassium vs vehicle-treated group: significantly (p<0.05) lower
[4]; continuous peritoneal lavage with adenosine 10^-4 M, vehicle 4 of 10, p<0.05
  survival to 72 hours: 9 of 10
[4]; during hemorrhagic shock and resuscitation, adenosine 10^-4 M lavage
  MABP and heart rate vs vehicle-treated group: similar
